Each structure is given as a SMILES string.

The text below walks through data of article PMC4201456, “Cytoxicity and Apoptotic Mechanism of Ruthenium(II) Amino Acid Complexes in Sarcoma-180 Tumor Cells” (PLoS ONE, 2014).

Assay [1] concerns S180 cells. The experiment in a line: Cell cycle analysis by PI flow cytometry. Format: cell-based, murine. As for the experimental part:
The S180 cells were treated with complex 2 (40 µM and 60 µM) for 24 h and 48 h. Briefly, 5.0×10^5 cells were harvested by centrifugation, washed with phosphate-buffered saline (PBS), fixed with 70% (v/v) cold ethanol and stored overnight at −20°C. The fixed cells were washed with PBS and incubated with propidium iodide (PI; Sigma-Aldrich) containing 0.05% RNase. The samples were incubated at 4°C in the dark and analyzed by flow cytometry (FACS Calibur, BD Biosciences). The percentage of cells in the G0/G1, S, G2/M and sub-G1 phases was analyzed using ModFit software.

Assay [2] relates to p53. Nature of the assay: Real-time RT-PCR gene expression, p53. Type of assay: cell-based, murine. Conditions: S180 cells, 40 µM, 6 h; p>0.05. How it is done:
The S180 cells were treated with 40 µM complex 2 for 6 h. Total RNA was extracted with Trizol reagent (Sigma-Aldrich, USA) following the manufacturer's protocol. Total RNA (2.0 µg) was used to produce complementary DNA (cDNA) with random primers (Applied Biosystems, USA) in a 20 µL reaction mixture according to the manufacturer's protocol.
Real-time PCR was carried out using a Line Gene K (Bioer Technology) instrument. Real-time PCR reactions were carried out in a 20 µL reaction mixture, including 2 µL of cDNA, 10 µL of SYBR Green PCR Master Mix (LGC Biotechnology, UK), and 2.0 µL of 400 nM forward and reverse primers. The PCR program was initiated at 95°C for 15 min followed by 40 cycles of 95°C for 15 s, 55°C for 15 s, and 72°C for 30 s. The data were analyzed according to the comparative Ct method and were normalized to the β-actin reference gene expression in each sample.

Assay [3] concerns S180 tumor cells. Nature of the assay: MTT cell viability assay, S180 tumor cells. Type of assay: cell-based, murine. Conditions: S180 tumor cell line, 48 h. How it is done:
The murine sarcoma-180 tumor cells (S180) (ATCC# TIB-66) and normal murine fibroblast cells (L-929) (ATCC# CCL-1) were cultured in suspension in RPMI 1640 and DMEM media (Sigma Chemical Co., MO), respectively, supplemented with 10% fetal calf serum, 100 µg/mL penicillin, and 100 µg/mL streptomycin. The cultures were incubated in a humidified incubator (Thermo Scientific) at 37°C with 5% CO2.
The cytotoxic effects of the amino acid ruthenium complexes were evaluated using an MTT assay with S180 tumor cells and L929 normal cells as described previously. Briefly, 1.0×10^5 S180 cells and 2.0×10^4 L929 cells were plated in 96-well tissue culture plates and treated with different concentrations of amino acid ruthenium complexes (0.2–200 µM) for 48 h. After treatment, 10 µL of MTT (5 mg mL^−1) was added to each well, and the plates were incubated at 37°C for an additional 3 h. The purple formazan crystals were dissolved in 50 µL of SDS, and the absorbance was determined at 545 nm using a Stat Fax 2100 microplate reader (Awareness Technology, Palm City, FL, USA). The cell viability was calculated as follows: viability (%) = (absorbance of the treated wells)/(absorbance of the control wells) ×100. The IC50 (complex concentration (µM) that results in a 50% reduction in cellular viability) was obtained from dose-response curves using GraphPad Prism 4.02 for Windows (GraphPad Software, San Diego, CA, USA).

The subject of assay [4] is pBR322 plasmid DNA. Nature of the assay: Atomic force microscopy of plasmid DNA. Particulars: incubated 24 h at 37°C. Type of assay: binding. As for the experimental part:
For the atomic force microscopy (TMAFM) experiment, the pBR322 plasmid was heated at 60°C for 10 minutes to obtain the OC form. The concentration of the stock solution was 1 mg/mL in HEPES buffer (4 mM HEPES (pH 7.4) and 2 mM MgCl2. Each sample contained 1 µL of pBR322 plasmid at a concentration of 0.25 µg/µL in a final volume of 40 µL. The amount of complex 2 added is expressed as ri. AFM samples were prepared by casting a 3 µL drop of test solution onto freshly cleaved muscovite green mica disks as the support. The drop was allowed to stand undisturbed for 3 minutes to favor the adsorbate-substrate interaction. Each DNA-laden disk was rinsed with Milli-Q water and was blown dry with clean compressed argon gas directed normal to the disk surface. The samples were stored over silica prior to AFM imaging. All AFM observations were made with a Nanoscope III Multimode AFM (Digital Instruments, Santa Barbara, CA). Nanocrystalline Si cantilevers ([…] in length) with an average spring constant of 50 N/m terminating in conical-shaped Si probe tips (10 nm apical radius and cone angle of 35°) were utilized. High-resolution topographic AFM images of 2×2 µm areas of different specimens were obtained in air at room temperature (relative humidity <40%). The AFM was operated in intermittent contact mode at a rate of 1–3 Hz.

For assay [5], the system named is S180 cells. The experiment in a line: Mitochondrial membrane potential, JC-1 flow cytometry. Format: cell-based, murine. Particulars: 24 h; for percentage of cells with depolarized mitochondria: control 11.5%; for percentage of cells showing red fluorescence (upper-right quadrant): control 88.5%. How it is done:
The effect of complex 2 on the mitochondrial membrane potential (ΔΨm) was measured using JC-1 dye (BD Biosciences) by flow cytometry according to the manufacturer's instructions. Briefly, 3.0×10^5 S180 cells were treated with complex 2 (40 µM and 60 µM) for 24 h. After incubation, the cells were harvested and washed with PBS. The cells were then incubated with JC-1 dye (BD Biosciences) for 15 min at 37°C in the dark. The stained cells were washed, resuspended in assay buffer, and immediately analyzed by flow cytometry. The data were analyzed using the Cell Quest software.

Assay [6] deals with caspase-8. Nature of the assay: Caspase activity colorimetric assay (IETD-pNA). Format: cell-based, murine. Conditions: S180 cells, 40 µM, 24 h; control 100%. As for the experimental part:
Direct measurement of the activity of caspases 3, 8, and 9 were performed using the ApoTarget Caspase 3, 8, and 9 Protease Assay (Invitrogen) according to the manufacturer's recommendations. After treatment with complex 2 (40 µM and 60 µM) for 24 h, the cells were lysed with chilled cell lysis buffer. The protein concentration was then measured using the BSA Protein Assay Kit (BioRad). An aliquot of the protein extract (75 µg) was mixed with 50 µL of 2X reaction buffer supplemented with 10 mM DTT and the substrates of DEVD-pNA (caspase-3), IETD-pNA (caspase-8), or LEHD-pNA (caspase-9). The mixtures were then incubated for 2 h at 37°C. Subsequently, the formation of p-nitroanilide in the samples was measured using an ELISA microplate reader at 405 nm. The increases in the activities of caspase-3, caspase-8, and caspase-9 were determined by comparing the results with the control.

Turning to `F[P-](F)(F)(F)(F)F.NCC(=O)[O-].[Ru+2].c1ccc(-c2ccccn2)nc1.c1ccc(P(CCCCP(c2ccccc2)c2ccccc2)c2ccccc2)cc1` [Complex 2, [Ru(gly)(bipy)(dppb)]PF6], the “fraction of G0/G1 cells” value in assay [1] (40 µM, 24 h, control 23.6%) turned out to be 61.07%; in assay [1] (40 µM, 48 h, control 41.55%), 59.94%; in assay [1] (60 µM, 24 h, control 23.6%), 56.09%; in assay [1] (60 µM, 48 h, control 41.55%), 59.86%. The “expression level of p53 compared with control” value in assay [2] is “remained unchanged”. In assay [3], this compound displayed an IC50 of 31.2 ± 4.19 µM. In addition, in assay [4], the “interaction with pBR322 plasmid DNA (AFM images)” value is reported as “did not covalently bind to DNA bases or intercalate between bases”. The “percentage of cells with depolarized mitochondria” value in assay [5] (40 µM) was 45.2%; in assay [5] (60 µM) it was 52.6%. For the same compound, the figures for the “percentage of cells showing red fluorescence (upper-right quadrant)” value in assay [5] (40 µM) and in assay [5] (60 µM) were 54.3% and 47.1%, respectively. For the same compound, in assay [6], the “activity of caspase-8” value came out at 127.22%.
